Measurements: patent US4405743A, “Pyrazolylpyrimidine derivatives” (Hokko Chemical Industry Co., Ltd., priority 1981, dated 1983)
Where two headings read alike, the source gives them in different places.

Tests used:
[1] = tested on: rice plant; conditions: in vivo
[2] = tested on: Pyricularia oryzae; format: in vivo, Pyricularia oryzae on rice plant (variety: Asahi); conditions: rice blast, prevention; 200 ppm; 5 days after inoculation
[3] = tested on: Cochliobolus miyabeanus; test: Effect of controlling rice brown spot, Experimental Example 3; format: in vivo, Cochliobolus miyabeanus on rice plant (variety: Asahi); conditions: sprayed liquid 500 ppm, 5 days after inoculation
[4] = tested on: cucumber plant
[5] = tested on: Sphaerotheca friliginea; test: Effect of controlling cucumber powdery mildew, Experimental Example 4; format: in vivo; conditions: sprayed liquid 200 ppm, 10 days after inoculation
Protocol: 10 ml of each of test liquids diluted to a predetermined concentration was sprayed over seedlings of a cucumber plant (variety: Sagami Hanpaku) grown up to the first leaf stage which has been soil cultured in an unglazed pot with a diameter of 9 cm in a green house. After allowing to stand overnight, the seedlings were sprayed for inoculation with a spore suspension of Sphaerotheca friliginea. Ten days after the inoculation, the rate of a lesion area (%) was checked and a control value was evaluated from the following equation. The degree of chemical injury against a cucumber plant was determined in the same manner as in Experimental Example.

[6] = tested on: Pyricularia oryzae; format: in vivo, Pyricularia oryzae on rice plant (variety: Asahi); conditions: rice blast, curative treatment; sprayed liquid 200 ppm; 5 days after spraying
[7] = tested on: rice plant; conditions: blast prevention test, 200 ppm
[8] = tested on: rice plant; conditions: blast curative test, 200 ppm

| Structure (SMILES) | Degree of chemical injury [1] | Control Value [2] [%] | Control Value [3] [%] | Degree of chemical injury ([4]; in vivo) | Control Value [5] [%] | Control Value [6] [%] | Degree of chemical injury [7] | Degree of chemical injury [8] | Degree of chemical injury ([4]; 200 ppm) |
| --- | --- | --- | --- | --- | --- | --- | --- | --- | --- |
| Cc1cc(SC#N)nc(-n2nc(C)cc2C)n1 [Comparative Chemical 3] | 5 |  |  |  |  |  |  |  |  |
| CCOc1ccnc(-n2nc(C)cc2C)n1 [Compound 1] | 0 | 100 | 99 | 0 | 90 | 100 | 0 | 0 |  |
| CCSc1ccnc(-n2nc(C)cc2C)n1 [Compound 2] | 0 | 100 | 94 | 0 | 88 | 100 | 0 | 0 |  |
| Cc1cc(C)n(-c2nccc(Oc3ccccc3)n2)n1 [Compound 3] | 0 | 100 | 100 | 0 | 94 | 98 | 0 | 0 |  |
| Cc1cc(Sc2ccc(Cl)cc2)nc(-n2nc(C)cc2C)n1 [Compound 5] | 0 | 100 | 100 | 0 | 85 | 100 | 0 | 0 |  |
| Cc1cc(Oc2ccccc2Cl)nc(-n2nc(C)cc2C)n1 [Compound 6] | 0 | 100 | 100 | 0 | 100 | 88 | 0 | 0 |  |
| Cc1cc(Oc2cccc(Cl)c2)nc(-n2nc(C)cc2C)n1 [Compound 7] | 0 | 100 | 100 | 0 | 100 | 100 | 0 | 0 |  |
| Cc1cc(Oc2ccc(Br)cc2)nc(-n2nc(C)cc2C)n1 [Compound 8] | 0 | 100 | 61 | 0 | 78 |  | 0 |  |  |
| Cc1cc(Oc2ccc(F)cc2)nc(-n2nc(C)cc2C)n1 [Compound 9] | 0 | 100 | 100 | 0 | 100 | 100 | 0 | 0 |  |
| Cc1cc(Oc2ccc(I)cc2)nc(-n2nc(C)cc2C)n1 [Compound 10] | 0 | 100 | 60 |  |  |  | 0 |  |  |
| Cc1cc(Oc2ccccc2C)nc(-n2nc(C)cc2C)n1 [Compound 11] | 0 | 100 | 100 | 0 | 90 | 100 | 0 | 0 |  |
| Cc1cccc(Oc2cc(C)nc(-n3nc(C)cc3C)n2)c1 [Compound 12] | 0 | 100 | 100 | 0 | 100 | 100 | 0 | 0 |  |
| Cc1ccc(Oc2cc(C)nc(-n3nc(C)cc3C)n2)cc1 [Compound 13] | 0 | 100 | 100 | 0 | 100 | 100 | 0 | 0 |  |
| Cc1cc(Oc2ccc(C(C)C)cc2)nc(-n2nc(C)cc2C)n1 [Compound 14] | 0 | 100 | 94 | 0 | 100 | 92 | 0 | 0 |  |
| Cc1cc(Oc2ccc(C(C)(C)C)cc2)nc(-n2nc(C)cc2C)n1 [Compound 15] | 0 | 100 | 81 | 0 | 91 | 100 | 0 | 0 |  |
| Cc1ccc(Sc2cc(C)nc(-n3nc(C)cc3C)n2)cc1 [Compound 16] | 0 | 100 | 100 |  |  | 100 | 0 | 0 |  |

| Structure (SMILES) | Degree of chemical injury [1] | Control Value [2] [%] | Control Value [3] [%] | Degree of chemical injury ([4]; in vivo) | Control Value [5] [%] | Control Value [6] [%] | Degree of chemical injury [7] | Degree of chemical injury [8] | Degree of chemical injury ([4]; 200 ppm) |
| --- | --- | --- | --- | --- | --- | --- | --- | --- | --- |
| COc1ccc(Oc2cc(C)nc(-n3nc(C)cc3C)n2)cc1 [Compound 17] | 0 | 100 | 100 | 0 | 100 | 100 | 0 | 0 |  |
| CSc1ccc(Oc2cc(C)nc(-n3nc(C)cc3C)n2)cc1 [Compound 18] | 0 | 100 | 90 |  |  |  | 0 |  |  |
| Cc1cc(Oc2ccc(C#N)cc2)nc(-n2nc(C)cc2C)n1 [Compound 19] |  | 100 |  |  |  |  | 0 |  |  |
| Cc1cc(Oc2ccc([N+](=O)[O-])cc2)nc(-n2nc(C)cc2C)n1 [Compound 20] | 0 | 82 | 91 | 0 | 78 |  | 0 |  |  |
| Cc1cc(Oc2cccc(C(F)(F)F)c2)nc(-n2nc(C)cc2C)n1 [Compound 21] | 0 | 100 | 77 | 0 | 86 |  | 0 |  |  |
| CCOC(=O)c1ccc(Oc2cc(C)nc(-n3nc(C)cc3C)n2)cc1 [Compound 22] | 0 | 100 | 100 |  |  |  | 0 |  |  |
| Cc1cc(Oc2ccc(Cl)cc2Cl)nc(-n2nc(C)cc2C)n1 [Compound 23] | 0 | 100 | 84 | 0 | 82 | 86 | 0 | 0 |  |
| Cc1cc(Oc2ccc(Cl)c(Cl)c2)nc(-n2nc(C)cc2C)n1 [Compound 24] | 0 | 92 | 89 | 0 |  | 84 | 0 | 0 |  |
| Cc1cc(Oc2ccc(Cl)c(C)c2)nc(-n2nc(C)cc2C)n1 [Compound 26] | 0 | 100 | 100 |  |  |  | 0 |  |  |
| Cc1ccc(C)c(Oc2cc(C)nc(-n3nc(C)cc3C)n2)c1 [Compound 28] | 0 | 100 | 100 | 0 | 100 | 98 | 0 | 0 |  |
| Cc1cc(C)cc(Oc2cc(C)nc(-n3nc(C)cc3C)n2)c1 [Compound 29] | 0 | 100 | 100 | 0 | 100 | 100 | 0 | 0 |  |
| Cc1cc(C)c(C)c(Oc2cc(C)nc(-n3nc(C)cc3C)n2)c1 [Compound 30] | 0 | 100 | 87 | 0 | 92 | 100 | 0 | 0 |  |
| Cc1cc(Oc2ccc([N+](=O)[O-])c(C)c2)nc(-n2nc(C)cc2C)n1 [Compound 31] |  | 100 |  |  | 77 | 84 | 0 | 0 | 0 |
| CCSc1nc(-n2nc(C)cc2C)ncc1C [Compound 33] | 0 | 100 | 82 | 0 | 94 | 82 | 0 | 0 |  |
| Cc1cc(C)n(-c2ncc(C)c(Oc3ccccc3)n2)n1 [Compound 34] | 0 | 92 | 98 | 0 | 100 | 100 | 0 | 0 |  |
